Patent US9505752B2, “Piperidine amide derivatives as HIV attachment inhibitors” (priority 2012, dated 2016)
Read-outs that look alike come from different tables or passages of the source.

System: HIV-1 LAI envelope single-round infectious reporter virus
Test: Single-round infectious luciferase reporter virus (HIV-1 LAI envelope) infection of MT2 cells
Type: cell-based
Details: Human immunodeficiency virus 1, MT2, 72 h
Description: • Virus production—Human embryonic Kidney cell line, 293T (HEK 293T), was propagated in Dulbecco's Modified Eagle Medium (Invitrogen, Carlsbad, Calif.) containing 10% fetal bovine serum (FBS, Sigma, St. Louis, Mo.). The human T-cell leukemia cell MT2 (AIDS Research and Reference Reagent Program, Cat. 237) was propagated in RPMI 1640 (Invitrogen, Carlsbad, Calif.) containing 10% fetal bovine serum (FBS, Hyclone, Logan, Utah) • Virus infection—Single-round infectious reporter virus was produced by co-transfecting HEK 293T cells with plasmide expressing the HIV-1 LAI envelope along with a plasmid containing an HIV-1 LAI proviral cDNA with the envelope gene replaced by a firefly luciferase reporter gene (Chen et al., Ref 41). Transfections were performed using lipofectAMINE PLUS reagent as described by the manufacturer (Invitrogen, Carlsbad, Calif.). Experimental Procedure • 1. MT2 cells were plated in black, 384 well plates at a cell density of 5×10^3 cells per well in 25 μl RPMI 1640 containing 10% FBS. • 2. Compound (diluted in dimethylsulfoxide and growth medium) was added to cells at 12.5 μl/well, so that the final assay concentration would be ≦50 nM. • 3. 12.5 μl of single-round infectious reporter virus in Dulbecco's Modified Eagle Medium was added to the plated cells and compound at an approximate multiplicity of infection (MOI) of 0.01, resulting in a final volume of 50 μl per well. • 4. Virus-infected cells were incubated at 37 degrees Celsius in a CO2 incubator and harvested 72 h after infection. • 5. Viral infection was monitored by measuring luciferase expression in the infected cells using a luciferase reporter gene assay kit (Steady-Glo, Promega, Madison, Wis.) as described by the manufacturer. Luciferase activity was then quantified by measuring luminescence using an EnVision Multilabel Plate Readers (PerkinElmer, Waltham, Mass.). • 6. The percent inhibition for each compound was calculated by quantifying the level of luciferase expression in cells infected in the presence of each compound as a percentage of that observed for cells infected in the absence of compound and subtracting such a determined value from 100. • 7. An EC50 provides a method for comparing the antiviral potency of the compounds of this invention. The effective concentration for fifty percent inhibition (EC50) was calculated with the Microsoft Excel Xlfit curve fitting software. For each compound, curves were generated from percent inhibition calculated at 10 different concentrations by using a four parameter logistic model (model 205). Table 1 is the key for the data in Table 2.

[1] = read-out: EC50 Group from Table 1

Structure (SMILES)	EC50 [nM]	EC50 [1] [nM]
O=C(C(=O)N1CCC(C(=O)c2ccccc2)CC1)c1c[nH]c2ccccc12 [Compound 1001]	3490	> 500
CC(C)=C(c1ccccc1)C1CCN(C(=O)C(=O)c2c[nH]c3ccccc23)CC1 [Compound 1002]	–	> 500
C/C=C(\c1ccccc1)C1CCN(C(=O)C(=O)c2c[nH]c3ccccc23)CC1 [Compound 1003]	–	> 500
C=C(c1ccccc1)C1CCN(C(=O)C(=O)c2c[nH]c3ccccc23)CC1 [Compound 1004]	–	> 500
COc1cnc(-n2ccnn2)c2[nH]cc(C(=O)C(=O)N3CCC4(CC3)CC4(c3ccccc3)c3nnc(C)o3)c12 (centres unmarked) [Compound 1005]	0.75	< 500
O=C(C(=O)N1CCC(Cc2ccccc2)CC1)c1c[nH]c2c(-n3ccnn3)ncc(F)c12 [Compound 1006]	–	< 500
O=C(C(=O)N1CCC(C(O)(c2ccccc2)c2ccccc2)CC1)c1c[nH]c2c(-n3ccnn3)ncc(F)c12 [Compound 1007]	–	< 500
N#CC(c1ccccc1)C1CCN(C(=O)C(=O)c2c[nH]c3c(-n4ccnn4)ncc(F)c23)CC1 (centres unmarked) [Compound 1008]	0.2	< 500
COc1cnc(-n2cnc(C)n2)c2[nH]cc(C(=O)C(=O)N3CCC(C(C#N)c4ccccc4)CC3)c12 (centres unmarked) [Compound 1009]	–	< 500
COc1ncc(OC)c2c(C(=O)C(=O)N3CCC4(CC3)CC4(C#N)c3ccccc3)c[nH]c12 (centres unmarked) [Compound 2001, 6-(2-(4,7-dimethoxy-1H-pyrrolo[2,3-c]pyridin-3-yl)-2-oxoacetyl)-1-phenyl-6-azaspiro[2.5]octane-1-carbonitrile]	–	< 500
N#CC1(c2ccccc2)CC12CCN(C(=O)C(=O)c1c[nH]c3c(-n4ccnn4)ncc(F)c13)CC2 (centres unmarked) [Compound 2002, 6-(2-(4-fluoro-7-(1H-1,2,3-triazol-1-yl)-1H-pyrrolo[2,3-c]pyridin-3-yl)-2-oxoacetyl)-1-phenyl-6-azaspiro[2.5]octane-1-carbonitrile]	–	< 500
COc1cnc(-n2cnc(C)n2)c2[nH]cc(C(=O)C(=O)N3CCC4(CC3)CC4(C#N)c3ccccc3)c12 (centres unmarked) [Compound 2003, 6-(2-(4-methoxy-7-(3-methyl-1H-1,2,4-triazol-1-yl)-1H-pyrrolo[2,3-c]pyridin-3-yl)-2-oxoacetyl)-1-phenyl-6-azaspiro[2.5]octane-1-carbonitrile]	2.52	< 500
Cn1ccnc1C(O)(c1ccccc1)C1CCN(C(=O)C(=O)c2c[nH]c3c(-n4ccnn4)ncc(F)c23)CC1 (centres unmarked) [Compound 2004, 1-(4-fluoro-7-(1H-1,2,3-triazol-1-yl)-1H-pyrrolo[2,3-c]pyridin-3-yl)-2-(4-(hydroxy(1-methyl-1H-imidazol-2-yl)(phenyl)methyl)piperidin-1-yl)ethane-1,2-dione]	–	< 500
COc1cnc(-n2cnc(C)n2)c2[nH]cc(C(=O)C(=O)N3CCC(C(O)(c4ccccc4)c4nccn4C)CC3)c12 (centres unmarked) [Compound 2005, 1-(4-(hydroxy(1-methyl-1H-imidazol-2-yl)(phenyl)methyl)piperidin-1-yl)-2-(4-methoxy-7-(3-methyl-1H-1,2,4-triazol-1-yl)-1H-pyrrolo[2,3-c]pyridin-3-yl)ethane-1,2-dione]	–	< 500
Cn1ccnc1C(c1ccccc1)C1CCN(C(=O)C(=O)c2c[nH]c3c(-n4ccnn4)ncc(F)c23)CC1 (centres unmarked) [Compound 2006, 1-(4-fluoro-7-(1H-1,2,3-triazol-1-yl)-1H-pyrrolo[2,3-c]pyridin-3-yl)-2-(4-((1-methyl-1H-imidazol-2-yl)(phenyl)methyl)piperidin-1-yl)ethane-1,2-dione]	–	< 500
COc1cnc(-n2cnc(C)n2)c2[nH]cc(C(=O)C(=O)N3CCC(C(c4ccccc4)c4nccn4C)CC3)c12 (centres unmarked) [Compound 2007, 1-(4-methoxy-7-(3-methyl-1H-1,2,4-triazol-1-yl)-1H-pyrrolo[2,3-c]pyridin-3-yl)-2-(4-((1-methyl-1H-imidazol-2-yl)(phenyl)methyl)piperidin-1-yl)ethane-1,2-dione]	–	< 500
